From US8158792B2, “Spiropiperidines for use as tryptase inhibitors” (Janssen Pharmaceutica N.V., priority 2007, dated 2012)

Molecular target: human lung tryptase
Assay: β-Tryptase In-Vitro Enzyme Assay
Assay type: biochemical
Settings: human lung tryptase 1 nM, substrate H-D-HHT-Ala-Arg-pNa 500 μM, pH 7.4, room temperature
Method: The β-tryptase assay was conducted with human lung tryptase (Cortex Biochem #CP3033) in an aqueous buffer (10 mM Tris, 10 mM Hepes, 150 mM NaCl, 0.1% PEG 8000, pH 7.4) using the chromogenic substrate H-D-HHT-Ala-Arg-pNa. […] Percent inhibition was calculated by comparing the initial reaction velocity of samples without inhibitor to those with inhibitor. The initial reaction velocities were analyzed using Microsoft Excel.

SMILES	IC50 [nM]
CN(C)C(=N)c1ccc2c(c1)C1(CCN(C(=O)c3ccc(C#Cc4ccccc4)o3)CC1)CO2 [Cpd 313, 1-(5-phenylethynyl-furan-2-yl)carbonyl-5′-[dimethylamino(imino)methyl]-spiro[piperidine-4,3′-(2H)-benzo[b]furan]]	140
NCCc1ccc2c(c1)C1(CCN(C(=O)c3ccc(C#Cc4ccccc4)o3)CC1)CO2 [Cpd 314, 1-(5-phenylethynyl-furan-2-yl)carbonyl-5′-aminoethyl-spiro[piperidine-4,3′-(2H)-benzo[b]furan]]	1300
NCc1ccc2c(c1)C1(CCN(C(=O)c3ccc(Cl)c(Cl)c3)CC1)C(=O)N2 [Cpd 315, 1-(3,4-dichlorophenyl)carbonyl-2′-oxo-5′-aminomethyl-spiro[piperidine-4,3′-(2H)-indole]]	480
COc1ccc(CN2C(=O)c3ccc(CN)cc3C23CCN(C(=O)c2ccc(C#Cc4ccccc4)o2)CC3)c(OC)c1 [Cpd 316, 1-(5-phenylethynyl-furan-2-yl)carbonyl-1′-oxo-2′-(2,4-dimethoxy-benzyl)-5′-aminomethyl-spiro[piperidine-4,3′-1H-isoindole]]	74
NCc1ccc2c(c1)C1(CCN(C(=O)c3ccc(C#Cc4ccccc4)o3)CC1)NC2=O [Cpd 317, 1-(5-phenylethynyl-furan-2-yl)carbonyl-1′-oxo-5′-aminomethyl-spiro[piperidine-4,3′-1H-isoindole]]	7.3
NCc1ccc2c(c1)C1(CC2)CCN(C(=O)c2ccc(C#Cc3ccccc3)o2)CC1 [Cpd 318, 1-(5-phenylethynyl-furan-2-yl)carbonyl-5′-aminomethyl-spiro[piperidine-4,3′-indane]]	3.1
NCc1ccc2c(c1)C1(CCN(C(=O)c3ccc(C#Cc4ccccc4)o3)CC1)CN2 [Cpd 319, 1-(5-phenylethynyl-furan-2-yl)carbonyl-5′-aminomethyl-spiro[piperidine-4,3′-(2H)-indole]]	26
CCN1CC2(CCN(C(=O)c3ccc(C#Cc4ccccc4)o3)CC2)c2cc(CN)ccc21 [Cpd 320, 1-(5-phenylethynyl-furan-2-yl)carbonyl-1′-ethyl-5′-aminomethyl-spiro[piperidine-4,3′-(2H)-indole]]	280
COC(=O)CCN1CC2(CCN(C(=O)c3ccc(C#Cc4ccccc4)o3)CC2)c2cc(CN)ccc21 [Cpd 321, 1-(5-phenylethynyl-furan-2-yl)carbonyl-1′-(2-methoxycarbonyl-ethyl)-5′-aminomethyl-spiro[piperidine-4,3′-(2H)-indole]]	160
NCc1ccc2c(c1)C1(CCN(C(=O)c3ccc(C#Cc4ccccc4)o3)CC1)CN2CCC(=O)O [Cpd 322, 1-(5-phenylethynyl-furan-2-yl)carbonyl-1′-(2-carboxy-ethyl)-5′-aminomethyl-spiro[piperidine-4,3′-(2H)-indole]]	450
COC(=O)N1CC2(CCN(C(=O)c3ccc(C#Cc4ccccc4)o3)CC2)c2cc(CN)ccc21 [Cpd 323, 1-(5-phenylethynyl-furan-2-yl)carbonyl-1′-methoxycarbonyl-5′-aminomethyl-spiro[piperidine-4,3′-(2H)-indole]]	110
NCc1ccc2c(c1)C1(CCN(C(=O)c3ccc(C#Cc4ccccc4)o3)CC1)CN2S(=O)(=O)c1ccc(C(=O)O)cc1 [Cpd 324, 1-(5-phenylethynyl-furan-2-yl)carbonyl-1′-(4-carboxy-phenyl)sulfonyl-5′-aminomethyl-spiro[piperidine-4,3′-(2H)-indole]]	200
NCc1ccc2c(c1)C1(CCN(C(=O)c3ccc(C#Cc4ccccc4)o3)CC1)CN2C(N)=O [Cpd 325, 1-(5-phenylethynyl-furan-2-yl)carbonyl-1′-aminocarbonyl-5′-aminomethyl-spiro[piperidine-4,3′-(2H)-indole]]	25
NCc1ccc2c(c1)C1(CCN(C(=O)c3ccc(C#Cc4ccccc4)o3)CC1)CN2CCP(=O)(O)O [Cpd 326, 1-(5-phenylethynyl-furan-2-yl)carbonyl-5′-aminomethyl-spiro[piperidine-4,3′-(2H)-indole]-1′-(2-ethyl-phosphonic acid)]	470
